According to patent US20060004197A1, “Sulfonamide-based compounds as protein tyrosine kinase inhibitors” (priority 2004, published 2006):

Tests used:
Type in all cases: biochemical
Recombinant human Src = biological target: T1, Recombinant human Src (Homo sapiens, UniProt P12931); experiment: Src tyrosine kinase activity, poly E4Y / 32P-ATP phosphorylation assay
T1 construct: made in house; host or cells: baculovirus-insect cell system

Recombinant Csk = Recombinant Csk (Homo sapiens, UniProt P41240); experiment: Csk tyrosine kinase activity, poly E4Y / 32P-ATP phosphorylation assay
FGF receptor (FGFr) = experiment: FGFr tyrosine kinase activity, poly E4Y / 32P-ATP phosphorylation assay
[1] = poly E4Y / 32P-ATP, Formula IV compounds
[2] = Table 2, Formula I compounds, NI = no inhibition at 100 μg/mL

Recombinant Csk, sequence (P41240 whole entry, species assumed): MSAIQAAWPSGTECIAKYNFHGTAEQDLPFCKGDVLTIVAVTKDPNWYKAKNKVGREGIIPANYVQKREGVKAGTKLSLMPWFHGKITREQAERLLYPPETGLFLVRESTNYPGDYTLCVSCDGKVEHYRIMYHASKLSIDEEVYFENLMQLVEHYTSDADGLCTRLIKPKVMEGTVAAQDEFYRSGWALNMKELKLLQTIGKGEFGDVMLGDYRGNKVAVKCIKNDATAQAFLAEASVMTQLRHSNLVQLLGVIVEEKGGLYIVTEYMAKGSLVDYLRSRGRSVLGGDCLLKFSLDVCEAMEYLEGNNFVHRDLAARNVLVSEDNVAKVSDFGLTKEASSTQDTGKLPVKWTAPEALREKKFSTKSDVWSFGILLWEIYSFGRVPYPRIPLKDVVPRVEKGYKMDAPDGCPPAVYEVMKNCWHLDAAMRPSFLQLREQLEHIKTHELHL

Compound	IC50 (Recombinant human Src; [1]) [µM]	IC50 (Recombinant Csk; [1]) [µM]	IC50 (μM) FGFr (FGF receptor (FGFr); [1])	IC50 (FGF receptor (FGFr); [1]) [µM]	IC50 (Recombinant human Src; [2]) [µM]	IC50 (Recombinant Csk; [2]) [µM]	IC50 (FGF receptor (FGFr); [2]) [µM]
COc1ccc(Oc2ccc(NS(=O)(=O)c3ccc(C)cc3)c(OCCCO)c2)cc1 [Compound 63, N-[2-(3-hydroxy-propoxy)-4-(4-methoxy-phenoxy)-phenyl]-4-toluenesulfonamide]	212	> 225	NI (NI = no inhibition at 100 μg/mL)	–	–	–	–
COc1ccc(Oc2ccc(NS(=O)(=O)c3ccc(C)cc3)c(OCC(O)CO)c2)cc1 (stereo not drawn) [Compound 64, N-[2-(2,3-dihydroxy-propoxy)-4-(4-methoxy-phenoxy)-phenyl]-4-toluenesulfonamide]	189	> 218	NI (NI = no inhibition at 100 μg/mL)	–	–	–	–
COc1ccc(Oc2ccc(NS(=O)(=O)c3ccc(C)cc3)c(OCC(=O)O)c2)cc1 [Compound 65, [5-(4-methoxy-phenoxy)-2-(4-toluenesulfonylamino)-phenoxy]-acetic acid]	169	> 225	NI (NI = no inhibition at 100 μg/mL)	–	–	–	–
COc1ccc(OCc2ccc(OC)c(NS(=O)(=O)c3ccc(C)cc3)c2)cc1 [Compound 66, N-[2-methoxy-5-(4-methoxy-phenoxymethyl)-phenyl]-4-toluenesulfonamide]	119	> 242	–	162	–	–	–
COc1ccc(Oc2ccc(NS(=O)(=O)c3ccc(C)cc3)c(C(=O)O)c2)cc1 [Compound 68, 5-(4-methoxy-phenoxy)-2-(4-toluenesulfonylamino)-benzoic acid]	133	303	NI (NI = no inhibition at 100 μg/mL)	–	–	–	–
Cc1ccc(S(=O)(=O)Nc2ccc(Sc3ccc(Cl)cc3)c([N+](=O)[O-])c2)cc1 [Compound 69, N-[4-(4-chloro-phenylsulfanyl)-3-nitro-phenyl]-4-toluenesulfonamide]	1970	986	NI (NI = no inhibition at 100 μg/mL)	–	–	–	–
Cc1ccc(S(=O)(=O)Nc2ccc([N+](=O)[O-])c(Sc3ccc(Cl)cc3)c2)cc1 [Compound 70, N-[3-(4-chloro-phenylsulfanyl)-4-nitro-phenyl]-4-toluenesulfonamide]	599	369	–	251	–	–	–
N-[4-chloro-2-(4-toluenesulfonylamino)-phenyl]-4-toluenesulfonamide [Compound 6]	–	–	–	–	1060	172	20.2
